# In patent US20240207263A1, “SELECTIVE MODULATORS OF ATAXIA TELA[…] (ATM) KINASE AND USES THEREOF” (priority 2021, published 2024):
# Target: ATM (Homo sapiens (Human), UniProt Q13315)
# Assay: biochemical
# Type: biochemical
# Settings: not given
# Text: Assay a): ATM Biochemical Potency
# Data was collected by Caliper.
# ATM, sequence (Q13315 whole entry, looked up): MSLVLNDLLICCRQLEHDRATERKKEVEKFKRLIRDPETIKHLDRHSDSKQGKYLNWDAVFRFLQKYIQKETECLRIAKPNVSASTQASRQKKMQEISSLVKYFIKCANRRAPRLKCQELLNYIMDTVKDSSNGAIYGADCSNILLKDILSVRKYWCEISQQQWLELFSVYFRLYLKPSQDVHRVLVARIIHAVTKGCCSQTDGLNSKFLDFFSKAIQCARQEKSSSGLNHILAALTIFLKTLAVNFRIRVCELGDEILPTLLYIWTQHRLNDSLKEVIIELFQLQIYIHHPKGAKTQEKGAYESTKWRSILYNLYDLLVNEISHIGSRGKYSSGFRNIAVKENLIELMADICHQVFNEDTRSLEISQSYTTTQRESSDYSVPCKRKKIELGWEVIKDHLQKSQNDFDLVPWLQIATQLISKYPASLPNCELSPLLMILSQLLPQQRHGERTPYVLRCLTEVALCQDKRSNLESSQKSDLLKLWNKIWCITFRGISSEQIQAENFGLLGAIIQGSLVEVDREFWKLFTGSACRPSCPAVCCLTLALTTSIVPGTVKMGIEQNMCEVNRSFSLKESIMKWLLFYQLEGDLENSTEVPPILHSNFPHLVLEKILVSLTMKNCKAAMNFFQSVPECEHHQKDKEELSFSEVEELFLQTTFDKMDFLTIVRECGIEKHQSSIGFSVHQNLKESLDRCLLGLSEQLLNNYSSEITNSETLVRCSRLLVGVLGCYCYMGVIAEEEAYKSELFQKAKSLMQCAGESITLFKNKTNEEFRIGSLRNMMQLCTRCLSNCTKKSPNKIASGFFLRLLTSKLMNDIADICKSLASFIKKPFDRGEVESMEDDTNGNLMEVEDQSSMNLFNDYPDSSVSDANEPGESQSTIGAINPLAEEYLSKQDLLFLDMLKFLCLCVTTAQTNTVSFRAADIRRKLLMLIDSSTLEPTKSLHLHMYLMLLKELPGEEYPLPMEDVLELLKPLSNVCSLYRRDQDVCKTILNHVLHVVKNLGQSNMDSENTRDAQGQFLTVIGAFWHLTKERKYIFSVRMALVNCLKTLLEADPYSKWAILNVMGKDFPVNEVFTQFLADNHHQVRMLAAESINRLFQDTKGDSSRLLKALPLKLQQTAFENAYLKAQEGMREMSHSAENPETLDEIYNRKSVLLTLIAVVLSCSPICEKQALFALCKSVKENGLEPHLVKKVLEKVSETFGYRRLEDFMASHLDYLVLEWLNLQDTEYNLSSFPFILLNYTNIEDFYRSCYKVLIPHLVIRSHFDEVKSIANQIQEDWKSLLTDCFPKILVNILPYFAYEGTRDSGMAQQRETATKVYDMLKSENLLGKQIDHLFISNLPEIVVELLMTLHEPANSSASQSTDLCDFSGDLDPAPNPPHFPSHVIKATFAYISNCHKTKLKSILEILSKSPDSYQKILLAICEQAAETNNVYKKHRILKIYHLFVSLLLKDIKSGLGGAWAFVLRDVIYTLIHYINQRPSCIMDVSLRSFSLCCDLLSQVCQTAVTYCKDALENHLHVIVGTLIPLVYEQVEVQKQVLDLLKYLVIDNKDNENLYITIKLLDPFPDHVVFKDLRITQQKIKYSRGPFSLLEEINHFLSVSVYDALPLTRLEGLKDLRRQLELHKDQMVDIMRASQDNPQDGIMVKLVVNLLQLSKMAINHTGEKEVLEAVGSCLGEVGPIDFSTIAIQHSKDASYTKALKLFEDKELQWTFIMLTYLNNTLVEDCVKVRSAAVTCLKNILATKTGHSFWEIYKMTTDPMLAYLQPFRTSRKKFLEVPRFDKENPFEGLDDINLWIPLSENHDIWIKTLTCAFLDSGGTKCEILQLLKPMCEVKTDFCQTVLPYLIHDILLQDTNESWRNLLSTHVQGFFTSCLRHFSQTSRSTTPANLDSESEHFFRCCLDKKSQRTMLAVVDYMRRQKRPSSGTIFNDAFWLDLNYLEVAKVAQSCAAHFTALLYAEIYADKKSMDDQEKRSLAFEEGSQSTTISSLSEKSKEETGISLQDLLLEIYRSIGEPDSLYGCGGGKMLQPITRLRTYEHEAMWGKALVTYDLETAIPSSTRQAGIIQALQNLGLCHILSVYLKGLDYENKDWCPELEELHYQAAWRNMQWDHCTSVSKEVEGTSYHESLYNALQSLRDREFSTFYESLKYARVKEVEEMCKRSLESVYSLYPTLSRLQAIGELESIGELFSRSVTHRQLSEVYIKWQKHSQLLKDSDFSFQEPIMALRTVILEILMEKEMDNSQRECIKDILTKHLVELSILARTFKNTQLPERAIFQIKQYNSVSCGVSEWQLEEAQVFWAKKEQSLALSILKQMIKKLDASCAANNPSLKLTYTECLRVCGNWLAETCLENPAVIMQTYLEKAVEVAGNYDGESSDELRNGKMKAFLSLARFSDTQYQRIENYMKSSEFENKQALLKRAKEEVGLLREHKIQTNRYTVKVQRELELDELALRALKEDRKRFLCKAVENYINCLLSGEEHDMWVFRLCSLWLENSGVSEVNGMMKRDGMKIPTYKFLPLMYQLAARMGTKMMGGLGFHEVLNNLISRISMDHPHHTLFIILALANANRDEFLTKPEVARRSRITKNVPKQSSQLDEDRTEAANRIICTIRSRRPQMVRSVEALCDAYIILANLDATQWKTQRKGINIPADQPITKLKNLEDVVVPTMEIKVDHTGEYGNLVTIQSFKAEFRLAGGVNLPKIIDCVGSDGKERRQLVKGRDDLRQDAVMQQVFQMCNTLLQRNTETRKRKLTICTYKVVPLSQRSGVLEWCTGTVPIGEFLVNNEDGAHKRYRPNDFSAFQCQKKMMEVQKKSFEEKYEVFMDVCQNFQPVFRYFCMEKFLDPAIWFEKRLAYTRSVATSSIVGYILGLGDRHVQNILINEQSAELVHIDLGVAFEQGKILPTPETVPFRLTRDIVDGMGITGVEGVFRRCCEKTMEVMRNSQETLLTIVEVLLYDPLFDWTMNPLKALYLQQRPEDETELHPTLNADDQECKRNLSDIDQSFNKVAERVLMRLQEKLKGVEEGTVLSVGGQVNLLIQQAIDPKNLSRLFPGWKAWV
row,SMILES,IC50 [nM]
1,"C[C@@H](OCCN1CCC2(COC2)C1)c1ccc(-c2ccc3nnc4c(c3c2)n(C2CCOCC2)c(=O)n4C)cn1 [Example 116, (R)-8-(6-(1-(2-(2-oxa-6-azaspiro[3.4]octan-6-yl)ethoxy)ethyl)pyridin-3-yl)-3-methyl-1-(tetrahydro-2H-pyran-4-yl)-1H-imidazo[4,5-c]cinnolin-2(3H)-one]",2.9

# Same assay, conditions: read-out: ATM IC50
row,SMILES,IC50 [nM]
1,"COC[C@@H]1CCN(CCO[C@H](C)c2ccc(-c3ccc4nnc5c(c4c3)n(C3CCOCC3)c(=O)n5C)cn2)C1 [Example 119, 8-(6-((R)-1-(2-((R)-3-(methoxymethyl)pyrrolidin-1-yl)ethoxy)ethyl)pyridin-3-yl)-3-methyl-1-(tetrahydro-2H-pyran-4-yl)-1H-imidazo[4,5-c]cinnolin-2(3H)-one]",2.4
2,"C[C@@H](OCCN1CCCCC1)c1ccc(-c2ccc3nnc4c(c3c2)n(C2CCOCC2)c(=O)n4C)cn1 [Example 120, (R)-3-methyl-8-(6-(1-(2-(piperidin-1-yl)ethoxy)ethyl)pyridin-3-yl)-1-(tetrahydro-2H-pyran-4-yl)-1H-imidazo[4,5-c]cinnolin-2(3H)-one]",11
3,"C[C@@H](OCCN1CCCC1)c1ccc(-c2ccc3nnc4c(c3c2)n(C2CCOCC2)c(=O)n4C)cn1 [Example 121, (R)-3-methyl-8-(6-(1-(2-(pyrrolidin-1-yl)ethoxy)ethyl)pyridin-3-yl)-1-(tetrahydro-2H-pyran-4-yl)-1H-imidazo[4,5-c]cinnolin-2(3H)-one]",13
4,"C[C@@H](OCCN1CC[C@@H](OC2CC2)C1)c1ccc(-c2ccc3nnc4c(c3c2)n(C2CCOCC2)c(=O)n4C)cn1 [Example 122, 8-(6-((R)-1-(2-((R)-3-cyclopropoxypyrrolidin-1-yl)ethoxy)ethyl)pyridin-3-yl)-3-methyl-1-(tetrahydro-2H-pyran-4-yl)-1H-imidazo[4,5-c]cinnolin-2(3H)-one]",4.3
5,"C[C@@H]1CCN(CCO[C@H](C)c2ccc(-c3ccc4nnc5c(c4c3)n(C3CCOCC3)c(=O)n5C)cn2)C1 [Example 123, 3-methyl-8-(6-((R)-1-(2-((R)-3-methylpyrrolidin-1-y)ethoxy)ethyl)pyridin-3-yl)-1-(tetrahydro-2H-pyran-4-yl)-1H-imidazo[4,5-c]cinnolin-2(3H)-one]",16
6,"C[C@@H](OCCN1CCC2(CCC2)CC1)c1ccc(-c2ccc3nnc4c(c3c2)n(C2CCOCC2)c(=O)n4C)cn1 [Example 124, (R)-8-(6-(1-(2-(7-azaspiro[3.5]nonan-7-yl)ethoxy)ethyl)pyridin-3-yl)-3-methyl-1-(tetrahydro-2H-pyran-4-yl)-1H-imidazo[4,5-c]cinnolin-2(3H)-one]",1.1
7,"C[C@@H](OCCN1CCC2(CCO2)CC1)c1ccc(-c2ccc3nnc4c(c3c2)n(C2CCOCC2)c(=O)n4C)cn1 [Example 125, (R)-8-(6-(1-(2-(1-oxa-7-azaspiro[3.5]nonan-7-yl)ethoxy)ethyl)pyridin-3-yl)-3-methyl-1-(tetrahydro-2H-pyran-4-yl)-1H-imidazo[4,5-c]cinnolin-2(3H)-one]",6.3
8,"C[C@H]1CCN(CCO[C@H](C)c2ccc(-c3ccc4nnc5c(c4c3)n(C3CCOCC3)c(=O)n5C)cn2)C1 [Example 126, 3-methyl-8-(6-((R)-1-(2-((S)-3-methylpyrrolidin-1-yl)ethoxy)ethyl)pyridin-3-yl)-1-(tetrahydro-2H-pyran-4-yl)-1H-imidazo[4,5-c]cinnolin-2(3H)-one]",20
9,"C[C@@H](OCCN1CC2(COC2)C1)c1ccc(-c2ccc3nnc4c(c3c2)n(C2CCOCC2)c(=O)n4C)cn1 [Example 127, (R)-8-(6-(1-(2-(2-oxa-6-azaspiro[3.3]heptan-6-yl)ethoxy)ethyl)pyridin-3-yl)-3-methyl-1-(tetrahydro-2H-pyran-4-yl)-1H-imidazo[4,5-c]cinnolin-2(3H)-one]",13
10,"C[C@@H](OCCN1CCC(C2COC2)CC1)c1ccc(-c2ccc3nnc4c(c3c2)n(C2CCOCC2)c(=O)n4C)cn1 [Example 128, (R)-3-methyl-8-(6-(1-(2-(4-(oxetan-3-yl)piperidin-1-yl)ethoxy)ethyl)pyridin-3-yl)-1-(tetrahydro-2H-pyran-4-yl)-1H-imidazo[4,5-c]cinnolin-2(3H)-one]",4.6
